Test results taken from the CheMixHub viscosity set.
“And” between values parts separate entries of the source, which are not always exact repeats. Identical values can stand only once. ± gives the uncertainty stated by the source.

Test: xn = mol fraction of the nth substance listed

N#C[S-].[Na+] + O
viscosity [mPa·s], 101.3 kPa
Conditions	293.15 K	298.15 K	303.15 K	308.15 K	313.15 K	318.15 K	323.15 K
x1 = 0.000641	1.046 ± 0.073	0.938 ± 0.066	0.839 ± 0.059	0.759 ± 0.053	0.689 ± 0.048	0.629 ± 0.044	0.577 ± 0.041
x1 = 0.0118	1.037 ± 0.073	0.943 ± 0.066	0.835 ± 0.059	0.771 ± 0.054	0.699 ± 0.049	0.638 ± 0.045	0.589 ± 0.041
x1 = 0.01737	1.104 ± 0.078	0.985 ± 0.069	0.887 ± 0.062	0.805 ± 0.057	0.732 ± 0.051	0.672 ± 0.047	0.618 ± 0.043
x1 = 0.03707	1.261 ± 0.089	1.128 ± 0.079	1.016 ± 0.071	0.92 ± 0.065	0.834 ± 0.059	0.766 ± 0.054	0.706 ± 0.05
x1 = 0.05053	1.367 ± 0.096	1.221 ± 0.086	1.124 ± 0.079	1.015 ± 0.071	0.919 ± 0.065	0.834 ± 0.059	0.776 ± 0.055
x1 = 0.07571	1.549 ± 0.11	1.387 ± 0.097	1.25 ± 0.088	1.132 ± 0.08	1.03 ± 0.072	0.945 ± 0.066	0.87 ± 0.061
x1 = 0.09639	1.81 ± 0.13	1.613 ± 0.11	1.442 ± 0.1	1.308 ± 0.092	1.19 ± 0.084	1.091 ± 0.077	1.003 ± 0.07
x1 = 0.1127	2.193 ± 0.15	1.939 ± 0.14	1.732 ± 0.12	1.56 ± 0.11	1.408 ± 0.099	1.295 ± 0.091	1.18 ± 0.083
x1 = 0.1223	2.333 ± 0.16	2.061 ± 0.14	1.828 ± 0.13	1.653 ± 0.12	1.493 ± 0.11	1.356 ± 0.095	1.248 ± 0.088
x1 = 0.1239	2.378 ± 0.17	2.099 ± 0.15	1.873 ± 0.13	1.679 ± 0.12	1.52 ± 0.11	1.384 ± 0.097	1.27 ± 0.089
x1 = 0.1334	2.641 ± 0.18	2.321 ± 0.16	2.06 ± 0.14	1.842 ± 0.13	1.668 ± 0.12	1.505 ± 0.11	1.374 ± 0.097
x1 = 0.1416	2.851 ± 0.2	2.501 ± 0.18	2.214 ± 0.15	1.977 ± 0.14	1.779 ± 0.12	1.609 ± 0.11	1.468 ± 0.1
x1 = 0.1532	3.196 ± 0.22	2.792 ± 0.2	2.461 ± 0.17	2.191 ± 0.15	1.963 ± 0.14	1.777 ± 0.12	1.619 ± 0.11
x1 = 0.1683	3.749 ± 0.26	3.258 ± 0.23	2.858 ± 0.2	2.527 ± 0.18	2.259 ± 0.16	2.049 ± 0.14	1.837 ± 0.13
x1 = 0.1834	4.424 ± 0.31	3.802 ± 0.27	–	–	–	–	–

COCCO + O
viscosity
Conditions	101 kPa	101.33 kPa
298.15 K, x1 = 0.01	0.9988 ± 0.021 mPa·s	–
298.15 K, x1 = 0.025	1.169 ± 0.025 mPa·s	–
298.15 K, x1 = 0.05	1.464 ± 0.031 mPa·s	–
298.15 K, x1 = 0.056	1.516 ± 0.038 mPa·s	–
298.15 K, x1 = 0.075	1.755 ± 0.037 mPa·s	–
298.15 K, x1 = 0.0834	–	1.894 ± 0.011 mPa·s
298.15 K, x1 = 0.1	2.023 ± 0.043 mPa·s	–
298.15 K, x1 = 0.136	2.365 ± 0.055 mPa·s	–
298.15 K, x1 = 0.1366	–	2.365 ± 0.014 mPa·s
298.15 K, x1 = 0.15	2.475 ± 0.052 mPa·s	2.442 ± 0.014 mPa·s
298.15 K, x1 = 0.2	2.766 ± 0.059 mPa·s	–
298.15 K, x1 = 0.2131	–	2.768 ± 0.016 mPa·s
298.15 K, x1 = 0.25	2.908 ± 0.062 mPa·s and 2.871 ± 0.18 mPa·s and 2.871 ± 0.022 mPa·s	–
298.15 K, x1 = 0.2601	–	2.876 ± 0.016 mPa·s
298.15 K, x1 = 0.262	2.885 ± 0.061 mPa·s	–
298.15 K, x1 = 0.3	2.942 ± 0.063 mPa·s	–
298.15 K, x1 = 0.3005	–	2.904 ± 0.017 mPa·s
298.15 K, x1 = 0.3558	–	2.886 ± 0.016 mPa·s
298.15 K, x1 = 0.4	2.833 ± 0.06 mPa·s	–
298.15 K, x1 = 0.4352	–	2.751 ± 0.016 mPa·s
298.15 K, x1 = 0.48	2.582 ± 0.16 mPa·s and 2.582 ± 0.019 mPa·s	–
298.15 K, x1 = 0.486	2.575 ± 0.044 mPa·s	–
298.15 K, x1 = 0.5	2.606 ± 0.055 mPa·s	–
298.15 K, x1 = 0.5001	–	2.616 ± 0.015 mPa·s
298.15 K, x1 = 0.5219	–	2.571 ± 0.015 mPa·s
298.15 K, x1 = 0.6	2.35 ± 0.05 mPa·s	–
298.15 K, x1 = 0.6161	–	2.367 ± 0.014 mPa·s
298.15 K, x1 = 0.6806	–	2.232 ± 0.013 mPa·s
298.15 K, x1 = 0.7	2.102 ± 0.044 mPa·s	–
298.15 K, x1 = 0.72	2.115 ± 0.13 mPa·s and 2.115 ± 0.017 mPa·s	–
298.15 K, x1 = 0.7514	–	2.076 ± 0.013 mPa·s
298.15 K, x1 = 0.8	1.874 ± 0.04 mPa·s	–
298.15 K, x1 = 0.8181	–	1.93 ± 0.012 mPa·s
298.15 K, x1 = 0.85	1.772 ± 0.037 mPa·s	–
298.15 K, x1 = 0.8844	–	1.786 ± 0.011 mPa·s
298.15 K, x1 = 0.9	1.681 ± 0.036 mPa·s	–
298.15 K, x1 = 0.95	1.606 ± 0.034 mPa·s	–
298.15 K, x2 = 0.1049	–	1.671 ± 0.02 mPa·s
298.15 K, x2 = 0.2062	–	1.86 ± 0.022 mPa·s
298.15 K, x2 = 0.3055	–	2.064 ± 0.024 mPa·s
298.15 K, x2 = 0.3977	–	2.288 ± 0.027 mPa·s
298.15 K, x2 = 0.4976	–	2.538 ± 0.029 mPa·s
298.15 K, x2 = 0.6002	–	2.755 ± 0.031 mPa·s
298.15 K, x2 = 0.6964	–	2.866 ± 0.033 mPa·s
298.15 K, x2 = 0.8004	–	2.68 ± 0.03 mPa·s
298.15 K, x2 = 0.9005	–	1.989 ± 0.023 mPa·s
308.15 K, x1 = 0.0461	–	1.143 ± 0.009 mPa·s
308.15 K, x1 = 0.0623	–	1.242 ± 0.008 mPa·s
308.15 K, x1 = 0.0881	–	1.52 ± 0.011 mPa·s
308.15 K, x1 = 0.1239	–	1.829 ± 0.013 mPa·s
308.15 K, x1 = 0.16	–	1.803 ± 0.011 mPa·s
308.15 K, x1 = 0.1871	–	2.124 ± 0.016 mPa·s
308.15 K, x1 = 0.2131	–	2.067 ± 0.012 mPa·s
308.15 K, x1 = 0.2442	–	2.284 ± 0.017 mPa·s
308.15 K, x1 = 0.25	2.142 ± 0.13 mPa·s and 2.142 ± 0.019 mPa·s	–
308.15 K, x1 = 0.2601	–	2.149 ± 0.012 mPa·s
308.15 K, x1 = 0.2938	–	2.341 ± 0.018 mPa·s
308.15 K, x1 = 0.3005	–	2.164 ± 0.013 mPa·s
308.15 K, x1 = 0.326	–	2.342 ± 0.018 mPa·s
308.15 K, x1 = 0.3558	–	2.15 ± 0.013 mPa·s
308.15 K, x1 = 0.3709	–	2.319 ± 0.017 mPa·s
308.15 K, x1 = 0.4014	–	2.284 ± 0.017 mPa·s
308.15 K, x1 = 0.4352	–	2.077 ± 0.012 mPa·s
308.15 K, x1 = 0.4504	–	2.217 ± 0.017 mPa·s
308.15 K, x1 = 0.5001	–	2.001 ± 0.012 mPa·s
308.15 K, x1 = 0.5219	–	1.96 ± 0.012 mPa·s
308.15 K, x1 = 0.6161	–	1.818 ± 0.011 mPa·s
308.15 K, x1 = 0.6806	–	1.726 ± 0.011 mPa·s
308.15 K, x1 = 0.72	1.68 ± 0.11 mPa·s and 1.68 ± 0.014 mPa·s	–
308.15 K, x1 = 0.7514	–	1.624 ± 0.01 mPa·s
308.15 K, x1 = 0.8844	–	1.443 ± 0.009 mPa·s
308.15 K, x2 = 0.1034	–	1.452 ± 0.069 mPa·s
308.15 K, x2 = 0.1923	–	1.477 ± 0.07 mPa·s
308.15 K, x2 = 0.2978	–	1.629 ± 0.077 mPa·s
308.15 K, x2 = 0.3944	–	1.768 ± 0.083 mPa·s
308.15 K, x2 = 0.5527	–	1.918 ± 0.089 mPa·s
308.15 K, x2 = 0.7415	–	2.002 ± 0.093 mPa·s
308.15 K, x2 = 0.8372	–	1.768 ± 0.083 mPa·s
308.15 K, x2 = 0.956	–	1.085 ± 0.054 mPa·s
313.15 K, x1 = 0.25	1.842 ± 0.11 mPa·s and 1.842 ± 0.016 mPa·s	–
313.15 K, x1 = 0.48	1.805 ± 0.11 mPa·s and 1.805 ± 0.014 mPa·s	–
313.15 K, x1 = 0.72	1.517 ± 0.095 mPa·s and 1.517 ± 0.012 mPa·s	–
318.15 K, x1 = 0.0251	–	0.737 ± 0.005 mPa·s
318.15 K, x1 = 0.0623	–	0.95 ± 0.006 mPa·s
318.15 K, x1 = 0.15	–	1.325 ± 0.008 mPa·s
318.15 K, x1 = 0.2131	–	1.505 ± 0.009 mPa·s
318.15 K, x1 = 0.25	1.588 ± 0.096 mPa·s and 1.588 ± 0.013 mPa·s	–
318.15 K, x1 = 0.2601	–	1.585 ± 0.009 mPa·s
318.15 K, x1 = 0.3005	–	1.626 ± 0.01 mPa·s
318.15 K, x1 = 0.3558	–	1.655 ± 0.01 mPa·s
318.15 K, x1 = 0.4352	–	1.653 ± 0.01 mPa·s
318.15 K, x1 = 0.48	1.627 ± 0.099 mPa·s and 1.627 ± 0.012 mPa·s	–
318.15 K, x1 = 0.5001	–	1.615 ± 0.01 mPa·s
318.15 K, x1 = 0.5219	–	1.602 ± 0.01 mPa·s
318.15 K, x1 = 0.6161	–	1.513 ± 0.009 mPa·s
318.15 K, x1 = 0.6806	–	1.444 ± 0.009 mPa·s
318.15 K, x1 = 0.72	1.389 ± 0.087 mPa·s and 1.389 ± 0.011 mPa·s	–
318.15 K, x1 = 0.7514	–	1.36 ± 0.009 mPa·s
318.15 K, x1 = 0.8181	–	1.281 ± 0.008 mPa·s
318.15 K, x1 = 0.8844	–	1.191 ± 0.008 mPa·s
323.15 K, x1 = 0.48	1.493 ± 0.091 mPa·s and 1.493 ± 0.014 mPa·s	–
323.15 K, x1 = 0.72	1.294 ± 0.081 mPa·s and 1.294 ± 0.0099 mPa·s	–
